Reference: US6329392A, “Substituted piperidines useful for the treatment of allergic diseases” (Aventis Pharmaceuticals, Inc., priority 1998, dated 2001)
Like-named read-outs stand apart in the source and are kept apart here.

Assays:
NK1 receptor = target: T1, NK1 receptor (Cavia porcellus, UniProt P30547); assay: Antagonism of iodinated tachykinin (substance P) binding to NK1 receptors in guinea pig lungs; conditions: read-out: NK1 Receptor Binding Affinity, IC50
T1 construct: as evaluated in guinea pig lungs (Keystone Biologicals, Cleveland, Ohio); tissue Keystone Biologicals, Cleveland, Ohio; host or cells: guinea pig lung membranes
Experimental: Antagonism of iodinated tachykinin binding to NK1 receptors by putative antagonists
One skilled in the art can measure the NK1 receptor affinity of proposed tachykinin antagonists as evaluated in guinea pig lungs (Keystone Biologicals, Cleveland, Ohio). Tissues or cells are homogenized with a Polytron in 15 volumes of 50 mM Tris-HCl buffer (pH 7.4, […]) and centrifuged. The pellet is resuspended in Tris-HCl buffer and centrifuged; the pellet is washed twice by resuspension. The final pellet is resuspended at a concentration of 40 mg/ml incubation buffer and remains at room temperature for at least 15 min prior to use. […] Incubations are performed at room temperature for 90 min; binding is terminated by addition of 50 mM Tris-HCl buffer (pH 7.4, […]) and filtration under vacuum through GF/B filters presoaked with 0.1% polyethyleneimine. Filter bound radioactivity is quantitated in a gamma counter. […] IC50 values (concentration required to inhibit 50% of receptor binding) are generated for each of the test compounds by nonlinear regression using an iterative curve fitting program (GraphPAD Inplot, San Diego, Calif.).

H1 receptor = target: T2, H1 receptor (Cavia porcellus, UniProt P31389); assay: Histamine (H1) antagonism in guinea pig ileum; format: cell-based; conditions: read-out: H1 Receptor Antagonism, pA2, in vitro (converted)
T2 construct: A piece of ileum, about 20 cm in length, is removed and cut into 2 cm pieces; from tissue; host or cells: ileum of male Hartley guinea pigs
Experimental: Male Hartley guinea pigs, weighing 200-450 grams, are sacrificed by CO2 asphyxiation. A piece of ileum, about 20 cm in length, is removed and cut into 2 cm pieces. Each ileum piece is placed in an organ bath at 37° C. containing Tyrode's solution and is constantly aerated with 95% O2 /5%CO2. Tyrode's solution has the composition: NaCl 136.9 mM, KCl […], CaCl2 1.8 mM, NaH2 PO4 0.42 mM, NaHCO3 11.9 mM, and dextrose 5.55 mM. Contractions are measured with an isometric transducer (Grass FTO3C), and are recorded on a polygraph recorder and/or a computer. The ileum strips are loaded with 1.0 grams of tension and allowed to equilibrate for a minimum of 30 minutes before starting the experiments.
The potency of the antagonism is determined by the magnitude of the shift and is expressed as a pA2 value which is the negative logarithm of the molar concentration of antagonist which produces a two-fold shift of the dose response curve to the right. The pA2 value is calculated by using Schild analysis. O. Arunlakshana and H. O. Schild, Br. J. Pharmacol Chemother. 14, 48-58 (1958).
Table 1 presents pA2 values by the method of Example 93 which indicate potency of H1 receptor antagonism and IC50 values by the method of Example 95 which indicates NK1 receptor binding affinity for representative compounds of the present invention.

T2 sequence (P31389 whole entry): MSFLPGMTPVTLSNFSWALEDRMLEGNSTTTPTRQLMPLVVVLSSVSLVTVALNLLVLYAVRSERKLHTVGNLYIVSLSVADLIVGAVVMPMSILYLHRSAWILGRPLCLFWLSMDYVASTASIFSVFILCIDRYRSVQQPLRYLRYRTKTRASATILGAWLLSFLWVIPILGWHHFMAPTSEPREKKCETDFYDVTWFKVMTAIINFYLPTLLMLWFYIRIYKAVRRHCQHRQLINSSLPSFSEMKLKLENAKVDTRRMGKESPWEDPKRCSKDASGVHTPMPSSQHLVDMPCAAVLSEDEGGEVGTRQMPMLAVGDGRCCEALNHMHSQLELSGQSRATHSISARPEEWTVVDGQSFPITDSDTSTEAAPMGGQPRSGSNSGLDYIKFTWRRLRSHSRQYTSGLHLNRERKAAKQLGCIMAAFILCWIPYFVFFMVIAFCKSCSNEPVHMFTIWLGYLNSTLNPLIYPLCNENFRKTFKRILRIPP
T1 sequence (P30547 whole entry): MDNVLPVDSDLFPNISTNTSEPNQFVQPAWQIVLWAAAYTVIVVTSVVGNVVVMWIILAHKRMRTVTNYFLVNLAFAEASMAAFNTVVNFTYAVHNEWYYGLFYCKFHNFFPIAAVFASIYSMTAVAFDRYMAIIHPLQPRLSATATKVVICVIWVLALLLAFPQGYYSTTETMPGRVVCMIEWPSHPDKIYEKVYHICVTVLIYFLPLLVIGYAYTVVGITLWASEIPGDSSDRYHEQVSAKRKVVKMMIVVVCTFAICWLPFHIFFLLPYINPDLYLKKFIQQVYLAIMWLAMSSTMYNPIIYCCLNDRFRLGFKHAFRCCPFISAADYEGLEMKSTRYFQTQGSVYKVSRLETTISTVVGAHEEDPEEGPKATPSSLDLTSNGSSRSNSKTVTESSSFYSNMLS

| SMILES | IC50 (NK1 receptor) [nM] | Kb (H1 receptor) [nM] | IC50 (NK1 receptor; guinea pig lungs, 0.1 nM 125I-Bolton Hunter Lys-3 labeled substance P, room temperature 90 min, pH 7.4) [nM] |
| --- | --- | --- | --- |
| COc1cc(CN2CCC(CCN3CCC(O)(c4nc5ccccc5n4Cc4ccc(F)cc4)CC3)(Cc3ccc(Cl)c(Cl)c3)C2=O)cc(OC)c1OC (stereo not drawn) [Example 54, 1-(3,4,5-Trimethoxy-benzvl)-3-[2-[4-[1-(4-fluoro-benzyl)-1H-benzoimidazol-2-yl]-4-hydroxy-piperidin-1-yl]-ethyl]-3-(3,4-dichloro-phenylmethyl)-2-oxo-pyrrolidine] | 269 | 479 |  |
| CC(C)Oc1cccc(CC(=O)N2CCCC(CCN3CCC(C(=O)c4nc5ccccc5n4Cc4ccc(F)cc4)CC3)(c3ccc(Cl)c(Cl)c3)C2)c1 (stereo not drawn) [Example 63, 1-(3-Isopropoxy-phenyl-acetyl)-3-[2-[4-[1-(4-fluoro-benzyl)-1H-benzoimidazole-2-carbonyl]-piperidin-1-yl]-ethyl]-3-(3,4-dichloro-phenyl)-piperidine] | 279 | 79.4 |  |
| CCOc1cc(C(=O)N2CCC(CCN3CCC(C(=O)c4nc5ccccc5n4Cc4ccc(F)cc4)CC3)(c3ccc(OC)c(OC)c3)C2)cc(OCC)c1OCC (stereo not drawn) [Example 28, 1-(3,4,5-Triethoxy-benzoyl)-3-[2-[4-[1-(4-fluoro-benzyl)-1 H-benzoimidazole-2-carbonyl]-piperidin-1-yl]-ethyl]-3-(3,4-dimethoxy-phenyl)-pyrrolidine] |  | 20.4 | 1240 |
| COc1ccc(C(=O)N2CCC(CCN3CCC(C(=O)c4nc5ccccc5n4Cc4ccc(F)cc4)CC3)(c3ccc4c(c3)OCO4)C2)c(OC)c1OC (stereo not drawn) [Example 27, 1-(2,3,4-Trimethoxy-benzoyl)-3-[2-[4-[1-(4-fluoro-benzyl)-1 H-benzoimidazole-2-carbonyl]-piperidin-1-yl]-ethyl]-3-(benzo[1,3]dioxol-5-yl)-pyrrolidine] | 370 | 20.9 |  |
| COc1cc(CN2CCC(CCN3CCC(O)(c4nc5ccccc5n4Cc4ccc(F)cc4)CC3)(Cc3ccc(F)cc3F)C2=O)cc(OC)c1OC (stereo not drawn) [Example 58, 1-(3,4,5-Trimethoxy-benzyl)-3-[2-[4-[1-(4-fluoro-benzyl)-1H-benzoimidazol-2-yl]-4-hydroxy-piperidin-1-yl]-ethyl]-3-(2,4-difluoro-phenylmethyl)-2-oxo-pyrrolidine] | 345 | 151 |  |
| COc1cc(C(=O)N2CCC(CCN3CCC(C(=O)c4nc5ccccc5n4Cc4ccccn4)CC3)(c3ccccc3)C2)cc(OC)c1OC (stereo not drawn) [Example 37, 1-(3,4,5-Trimethoxy-benzoyl)-3-[2-[4-[1-(pyrid-2-ylmethyl)-1 H-benzoimidazole-2-carbonyl]-piperidin-1-yl]-ethyl]-3-phenyl-pyrrolidine] | 17 | 25.1 |  |
| CC(C)Oc1cccc(CC(=O)N2CCC(CCN3CCC(C(=O)c4nc5ccccc5n4Cc4ccc(F)cc4)CC3)(c3ccc4c(c3)OCO4)C2)c1 (stereo not drawn) [Example 26, 1-(3-Isopropoxy-phenyl-acetyl)-3-[2-[4-[1-(4-fluoro-benzyl)-1 H-benzoimidazole-2-carbonyl]-piperidin-1-yl]-ethyl]-3-(benzo[1,3]dioxol-5-yl)-pyrrolidine] | 288 | 61.7 |  |
| COc1cc(C(=O)N2CCC(CCN3CCC(C(=O)c4nc5ccccc5n4Cc4ccc(F)cc4)CC3)(c3ccc(Cl)c(Cl)c3)C2)cc(OC)c1OC (single isomer, unassigned; (+)) [Example 14, (+)-1-(3,4,5-Trimethoxy-benzoyl)-3-[2-[4-[1-(4-fluoro-benzyl)-1 H-benzoimidazole-2-carbonyl]-piperidin-1-yl]-ethyl]-3-(3,4-dichloro-phenyl)-pyrrolidine] | 29 | 50.1 |  |
| COc1cc(C(=O)N2CCC(CCN3CCC(C(=O)c4nc5ccccc5n4Cc4ccccn4)CC3)(c3ccc(Cl)c(Cl)c3)C2)cc(OC)c1OC (stereo not drawn) [Example 33, 1-(3,4,5-Trimethoxy-benzoyl)-3-[2-[4-[1-(pyrid-2-ylmethyl)-1 H-benzoimidazole-2-carbonyl]-piperidin-1-yl]-ethyl]-3-(3,4-dichloro-phenyl)-pyrrolidine] | 38 | 41.7 |  |
